From EP0913397B1, “A proces for the synthesis of 1-(4-Arylpiperazine-1-y1)-3-(2-oxypyrrolidin/piperidin-1-yl)propanes as therapeutic agents for hypertension, ischemia, cardiovascular and other adrenergic receptors related disorders” (COUNCIL OF SCIENTIFIC AND INDUSTRIAL RESEARCH, priority 1997, dated 1999)

What was measured:
[1] = system: anaesthetized (pentobarbitone sodium 35 mg/kg i.v.) cat; assay: Effect on blood pressure and adrenaline vasopressure response in anaesthetized cat (Table 2); format: in vivo
Description: Table 2: Effect on blood pressure, heart rate and adrenaline vasopressure response at an anaesthetized (pentobarbitone sodium 35 mg/kg i.v.) cat.
(§1) • (a) Cats (2.6-4.0 kg) of either sex anaesthetized with pentobarbitone sodium ([…] i.v.) and showing basal mean arterial blood pressure below 150 mm (Hg) were categorised as normotensive and above 150 mm Hg as hypertensive. Arterial blood pressure (BP) was recorded from one of the carotid artery through a stathum P23 DC pressure transducer and 7P1 low level DC preamplifier on a Grass Model P7 Polygraph, Signals from 7P 1 preamplifier were used to trigger 7P4 Tachograph preamplifier for recording the heart rate (HR). Right femoral vein and Trachea were cannulated for intravenous injections and artificial ventilation respectively. Control responses to intravenous injection of noradrenaline (2-4 ug); acetyl choline (1-2 ug); histamine (1-2 ug) and isoprenaline (1-2 ug) were taken before and after the administration of test doses of each compounds.

[2] = system: Langendorff perfused rat heart preparation; assay: Cardioprotective activity, Langendorff perfused rat heart, prolonged period of ischemic insult
Description: Further, in Langendorff perfused rat heart preparation subjected to even up to 90 min. global ischemia, the compound at 0.001 ug/ml conc. given at the time of reperfusion revived normal rhythmic contraction started within 2 min. (Table 1) and incidence of reperfusion induced arrhythmia were abolished. Table 1: Compound administered at the time reperfusion at the dose of 0.001 ug/ml on prolong period (90min.) of ischemic insult.
The rats were killed by decapitation, heart were rapidly excised and placed in ice-cold HEPES tyrode buffer. Then isolated hearts were perfused retrogradely through coronary arteries using the Langendorff technique. The perfusion buffer consisted (in mM) NaCl 137, KCl 5.4, CaCl2 1.8, MgCl 2 1.0, glucose 11.2 and HEPES 3.0. The buffer (pH 7.4) was continuously gassed with oxygen and maintained at 37°C. Coronary flow rate was maintained at 10 ml/min. The heart contracted spontaneously. The perfused heart was allowed to equilibrate for 30 min. before initiation of any insult protocol. The test compounds were given at the time of reperfusion. Some of the compounds were dissolved in ethanol. Final concentration of ethanol in the perfusion buffer was 0.0001% and had no effect of its own on the parameter used. • (a) For brief period of ischemic insult (Hideo et al. Pathophysiology and pathogenesis of stunned myocardium. J. Clin. Invest., 79, 950-961, 1987). Ischemia was initiated by stopping the flow for 16 min. followed by 30 min. reperfusion period. The durations were decided on the initial pilot experiments leading to 50% recovery of function. • (b) For prolong period of ischemic insult (Becker, L.C. & Ambrosio, G. Myocardial consequences of reperfusion Prog. Cardiovas. Dis., 30, 23-44, 1987). Ischemia was initiated by stopping the flow for […] by 30 min. reperfusion.

Normotensive cat = assay: Effect on blood pressure, heart rate and adrenaline vasopressor response, anaesthetized normotensive cat; format: in vivo; conditions: 10 uMol/kg i.d.
Description: (§2) 2. Effect on blood pressure, heart rate and adrenaline vasopressor response of anaesthetized (pentobarbitone sodium 40 & 60 mg/kg i.p. in cat and rat respectively) normotensive & hypertensive rat & cat model preparations.
as §1

cat = assay: In vivo drug antagonism studies in cat; conditions: 2 uMol dose i.v. in cat
Isolated aortic strip = assay: Isolated aortic strip, endothelin induced contraction
[3] = system: histamine induced bronchoconstriction; assay: Konzett and Rossler preparation
[4] = system: Isolated Guinea pig ileum preparation; assay: Isolated Guinea pig ileum preparation, antihistaminic activity; conditions: 0.5-5.0 ug/ml
[5] = system: Rat aortic ring preparation; assay: Rat aortic ring preparation, NE induced contraction
[6] = system: Hypertensive rat model preparation; assay: Effect on blood pressure, heart rate and adrenaline vasopressor response, anaesthetized hypertensive rat model preparation; format: in vivo
Description: as §2, §1

[7] = 0.001 ug/ml given at the time of reperfusion, up to 90 min. global ischemia

CCc1ccccc1N1CCN(CCCN2CCCCC2=O)CC1 [Ar=C6H4-2-C2H5, n=2, 1-[4-(Z-ethylphenyll)piperazin-1-yl]-3-[2-oxopiperidin-1-yl]propane]
B. P. fall % ([1]; 2.0 umol/kg i.v.): 35%
Dur. ([1]; 2.0 umol/kg i.v.): 55 min
Adrenaline vasopressure response % inhibition ([1]; 10.0 umol/kg i.v.): R (R=Reversal)
B. P. fall % ([1]; 10.0 umol/kg i.v.): 20%
Dur. ([1]; 10.0 umol/kg i.v.): 63 min

O=C1CCCCN1CCCN1CCN(c2cccc(C(F)(F)F)c2)CC1 [Ar=C6H4-3-CF3, n=2, 1-[4-(3-trifluoromethylphenyl)piperazin-1-yl]-3-[2-oxopiperidin-1-yl]propane]
Dur. ([1]; 10.0 umol/kg i.v.): Tr

CCc1ccc(N2CCN(CCCN3CCCC3=O)CC2)cc1 [Ar=C6H4-4-C2H5, n=1, 1-[4-(4-ethylphenyl)piperazin-1-yl]-3-[2-oxopyrrolidin-1-yl]propane]
Dur. ([1]; 2.0 umol/kg i.v.): Tr

O=C1CCCN1CCCN1CCN(c2ccc(F)cc2)CC1 [Ar=C6H4-4-F, n=1, 1-[4-(4-fluorophenyl)piperazin-1-yl]-3-[2-oxopyrrolidin-1-yl]propane]
incidence of reperfusion induced arrhythmia [2, 7]: abolished
time to start of normal rhythmic contraction [2, 7]: ≤ 2 min
Heart rate Pre/post treatment (post) (Normotensive cat; post treatment): 170 beats/min
Heart rate Pre/post treatment (pre) (Normotensive cat; pre treatment): 200 beats/min
reduction of the fall in blood pressure (cat; glibenclamide pretreatment): only partially reduced
reduction of antihypertensive effect (cat; pretreatment with Dup-753): 33%
alteration of antihypertensive effect (cat; pretreatment with atropine sulphate): failed to alter
alteration of antihypertensive effect (cat; pretreatment with mepyramine maleate): failed to alter
alteration of antihypertensive effect (cat; pretreatment with propranolol): failed to alter
alteration of antihypertensive effect (cat; pretreatment with yohimbine): failed to alter
Endothelin induced contraction (Isolated aortic strip): inhibited significantly
Response to endothelin after washing the preparation (Isolated aortic strip; after washing): relaxation rather than contraction
antihistaminic activity against histamine induced bronchoconstriction [3]: some antihistaminic activity
antihistaminic activity [4]: significant antihistaminic activity
NE induced contraction [5]: inhibited
Heart rate Pre/post treatment (post) ([6]; 5 uMol/kg i.d.): 320 beats/min
Heart rate Pre/post treatment (post) ([6]; 10 uMol/kg i.d.): 340 beats/min
Heart rate Pre/post treatment (pre) ([6]; 20 uMol/kg i.d., pre treatment): 310 beats/min

COC(=O)C1=C(C)NC(C)=C(C(=O)OC)C1c1ccccc1[N+](=O)[O-] [Nifedipine, reference compound]
Onset ([2]; 10^-6M, ischemic insult 45 min.): 2.5 min
